In ChEMBL document CHEMBL3046349, “Novel Mechanisms of Drug Action: Functional Selectivity at D2 Dopamine Receptors” (Med Chem Res, 2004) one finds Ratio data, which are given here for 1 molecule.

This test is filed under the species Rattus norvegicus. In words: Selectivity ratio of K0.5 for Rattus norvegicus Sprague-Dawley (rat) striatum dopamine D2 receptor to K0.5 for Sprague-Dawley Rattus norvegicus (rat) striatum dopamine D1 receptor. Type of test: tissue-based.

With `Oc1cc2c(cc1O)[C@H]1c3ccccc3CN[C@@H]1CC2` (relative stereo), the Ratio was 10.
